# Results: patent US8431588B2, “Cyclopropyl polymerase inhibitors” (Janssen Products, LP, priority 2008, dated 2013)
# pEC50: −log10 of the molar value. Read-outs that look alike come from different tables or passages of the source.
# Experiments:
# [1] = test system: wild type human immunodeficiency virus (HIV) strain IIIB; assay: microbe, parasite or virus in culture; assay type: cell-based, HIV-1; settings: read-out: EC50 (IIIB)
# Method: Compounds of the invention were tested for their potency against wild type human immunodeficiency virus (HIV). Antiviral activity was evaluated using a cellular assay performed according to the following procedure. The human T-cell line MT4 was engineered with Green Fluorescent Protein (GFP) and a HIV-specific promoter, HIV-1 long terminal repeat (LTR). This cell line, designated MT4 LTR-EGFP, can be used for the in vitro evaluation of anti-HIV activity of investigational compounds. In HIV-1 infected cells, the Tat protein is produced, which upregulates the LTR promotor and eventually leads to stimulation of the GFP reporter production, allowing to measure ongoing HIV-infection fluorometrically. Effective concentration values such as 50% effective concentration (EC50) can be determined and are usually expressed in μM. An EC50 value is defined as the concentration of test compound that reduces the fluorescence of HIV-infected cells by 50%. Monitoring of HIV-1 infection was done using a scanning microscope. Image analysis allows very sensitive detection of viral infection. Measurements were done before cell necrosis, which usually takes place about five days after infection, in particular measurements were performed three days after infection. The column IIIB in the table list the EC50 values against the wild type strain IIIB.
# [2] = Cellular toxicity in the Huh7-CMV-Luc replicon assay; assay type: cell-based; settings: human; Huh7-CMV-Luc cells, three days incubation, Luc activity
# Method: Cellular toxicity was determined in the Huh7-CMV-Luc replicon assay. Replicon cells (2500 cells/well), stably transformed with a luciferase reporter gene under control of the cytomegalovirus (CMV) constitutive promotor, were cultured in the presence or absence of test compound concentrations. After three days of incubation at 37° C. in a humidified 5% CO2 atmosphere, cell proliferation was quantified by measuring the Luc activity, and expressed as CC50 values (cytotoxicity, 50% inhibitory concentration of cell growth). Tests were performed in 384-well plates.
# [3] = test system: HCV type 1b replicon in Huh-7 luc/neo (Huh-Luc) cells; assay: HCV replicon assay (Huh-Luc, luciferase readout); assay type: cell-based; settings: Hepatitis C virus, Huh-7, 72 h, read-out: EC50 (replicon)
# Text: The compounds of formula I were examined for activity in the inhibition of HCV RNA replication in a cellular assay aimed at identifying compounds that inhibit a HCV functional cellular replicating cell line, also known as HCV replicons. The cellular assay was based on a bicistronic expression construct, as described by Lohmann et al. (1999), Science vol. 285 pp. 110-113 with modifications described by Krieger et al. (2001), Journal of Virology 75: 4614-4624, in a multi-target screening strategy.
# The assay utilized the stably transfected cell line Huh-7 luc/neo (hereafter referred to as Huh-Luc). This cell line harbors an RNA encoding a bicistronic expression construct comprising the wild type NS3-NS5B regions of HCV type 1b translated from an Internal Ribosome Entry Site (IRES) from encephalomyocarditis virus (EMCV), preceded by a reporter portion (FfL-luciferase), and a selectable marker portion (neo^R, neomycine phosphotransferase). The construct is bordered by 5′ and 3′ NTRs (non-translated regions) from HCV type 1b. Continued culture of the replicon cells in the presence of G418 (neo^R) is dependent on the replication of the HCV RNA. The stably transfected replicon cells that express HCV RNA, which replicates autonomously and to high levels, encoding inter alia luciferase, were used for screening the antiviral compounds.
# The replicon cells were plated in 384 well plates in the presence of the test and control compounds which were added in various concentrations. Following an incubation of three days, HCV replication was measured by assaying luciferase activity (using standard luciferase assay substrates and reagents and a Perkin Elmer ViewLux™ ultraHTS microplate imager). Replicon cells in the control cultures have high luciferase expression in the absence of any inhibitor. The inhibitory activity of the compound on luciferase activity was monitored on the Huh-Luc cells, enabling a dose-response curve for each test compound. EC50 values were then calculated, which value represents the amount of the compound required to decrease the level of detected luciferase activity by 50%, or more specifically, the ability of the genetically linked HCV replicon RNA to replicate.
# [4] = Human immunodeficiency virus 1, 72 h, wild type strain IIIB, MT4 LTR-EGFP cells, three days after infection
# [5] = Huh-Luc replicon cells, three days incubation, luciferase activity
SMILES,"pEC50 [1, 4]",CC50 at 3 days [2] [µM],"pEC50 [3, 5]",pEC50 [3],"pEC50 ([1]; Human immunodeficiency virus 1, IIIB, 72 h)"
"Nc1ccn([C@@H]2O[C@H](CO)[C@@H](O)C23CC3)c(=O)n1 [Compound 1, 4-Amino-1-(7-hydroxy-6-hydroxymethyl-5-oxa-spiro[2.4]hept-4-yl)-1H-pyrimidin-2-one]",< 4.01,> 98,5.08,,
"C[C@H](NP(=O)(OC[C@H]1O[C@@H](n2ccc(N)nc2=O)C2(CC2)[C@@H]1O)Oc1ccccc1)C(=O)OCc1ccccc1 (stereo partly drawn) [Compound 2a, (2S)-benzyl 2-((((4R,6R,7S)-4-(4-amino-2-oxopyrimidin-1(2H)-yl)-7-hydroxy-5-oxaspiro[2.4]heptan-6-yl)methoxy)((phenoxy)phosphoryl)amino)propanoate]",< 4.01,> 98,4.82,,
"C[C@H](NP(=O)(OC[C@H]1O[C@@H](n2ccc(N)nc2=O)C2(CC2)[C@@H]1O)Oc1ccc(Cl)cc1)C(=O)OCc1ccccc1 (stereo partly drawn) [Compound 2b, (2S)-benzyl 2-((((4R,6R,7S)-4-(4-amino-2-oxopyrimidin-1(2H)-yl)-7-hydroxy-5-oxaspiro[2.4]heptan-6-yl)methoxy)(4-chlorophenoxy)phosphorylamino)propanoate]",< 4.01,> 98,4.58,,
"CCOC(=O)[C@H](Cc1ccccc1)NP(=O)(OC[C@H]1O[C@@H](n2ccc(N)nc2=O)C2(CC2)[C@@H]1O)Oc1ccccc1 (stereo partly drawn) [Compound 2c, (2S)-ethyl 2-((((4R,6R,7S)-4-(4-amino-2-oxopyrimidin-1(2H)-yl)-7-hydroxy-5-oxaspiro[2.4]heptan-6-yl)methoxy)(phenoxy)phosphorylamino)-3-phenylpropanoate]",< 4.01,> 98,,≤ 4.01,
"COC(=O)[C@H](C)NP(=O)(OC[C@H]1O[C@@H](n2ccc(N)nc2=O)C2(CC2)[C@@H]1O)Oc1ccccc1 (stereo partly drawn) [Compound 2d, (2S)-methyl 2-((((4R,6R,7S)-4-(4-amino-2-oxopyrimidin-1(2H)-yl)-7-hydroxy-5-oxaspiro[2.4]heptan-6-yl)methoxy)(phenoxy)phosphorylamino)propanoate]",< 4.01,> 98,4.20,,
"CC(C)C(=O)OC[C@H]1O[C@@H](n2ccc(N)nc2=O)C2(CC2)[C@@H]1OC(=O)C(C)C [Compound 3, (4R,6R,7S)-4-(4-amino-2-oxopyrimidin-1(2H)-yl)-6-(isobutyryl-oxymethyl)-5-oxaspiro[2.4]heptan-7-yl isobutyrate]",< 4.01,> 98,4.57,,
"CC(C)C(=O)OC[C@H]1O[C@@H](n2ccc(N)nc2=O)C2(CC2)[C@@H]1O [Compound 4, ((4R,6R,7S)-4-(4-amino-2-oxopyrimidin-1(2H)-yl)-7-hydroxy-5-oxaspiro[2.4]heptan-6-yl)methyl isobutyrate]",,> 98,5.04,,< 4.01
"CC(C)C(=O)O[C@@H]1[C@@H](CO)O[C@@H](n2ccc(N)nc2=O)C12CC2 [Compound 5, (4R,6R,7S)-4-(4-amino-2-oxopyrimidin-1(2H)-yl)-6-(hydroxymethyl)-5-oxaspiro[2.4]heptan-7-yl isobutyrate]",< 4.01,> 98,4.37,,
